# Assay results as given in PubChem BioAssay AID1745844 (Carcinogenic Potency Database (CPDB), 2022).
# Activity calls are given as the source filed them. How the calls were made is not given here.
# System: rodent lifetime carcinogenesis bioassay, tumor incidence TD50
# Assay: carcinogenic potency in animals, long-term in vivo studies, CPDB compilation (AID 1745844)
smiles,measurement,setting,value
Nc1cc(S(=O)(=O)[O-])cc2cc(S(=O)(=O)[O-])c(N=Nc3ccc(-c4ccc(N=Nc5c(S(=O)(=O)[O-])cc6cc(S(=O)(=O)[O-])cc(N)c6c5O)c(O)c4)cc3O)c(O)c12.[Cu].[Cu].[Na+].[Na+].[Na+].[Na+],TD50,"mouse, strain B6C3F1, females, in feed, site: any site (literature study), lesion: several types, types named in the paper, dosed 103 weeks, study length 106 weeks",1530 mg/kg/day
same,TD50,"mouse, strain B6C3F1, females, in feed, site: liver, lesion: hepatoblastoma + hepatocellular carcinoma, dosed 103 weeks, study length 106 weeks",4000 mg/kg/day
same,TD50,"mouse, strain B6C3F1, females, in feed, site: liver, lesion: hepatocellular adenoma + hepatoblastoma + hepatocellular carcinoma, dosed 103 weeks, study length 106 weeks",711 mg/kg/day
same,TD50,"mouse, strain B6C3F1, females, in feed, site: liver, lesion: hepatocellular adenoma + hepatocellular carcinoma, dosed 103 weeks, study length 106 weeks",711 mg/kg/day
same,TD50,"mouse, strain B6C3F1, females, in feed, site: liver, lesion: hepatocellular adenoma, dosed 103 weeks, study length 106 weeks",774 mg/kg/day
same,TD50,"mouse, strain B6C3F1, females, in feed, site: liver, lesion: hepatocellular carcinoma, dosed 103 weeks, study length 106 weeks",4570 mg/kg/day
same,TD50,"mouse, strain B6C3F1, males, in feed, site: any site (literature study), lesion: several types, types named in the paper, dosed 103 weeks, study length 105 weeks",1910 mg/kg/day
same,TD50,"mouse, strain B6C3F1, males, in feed, site: jejunum, lesion: carcinoma, dosed 103 weeks, study length 105 weeks",20300 mg/kg/day
same,carcinogen call,"mouse, strain B6C3F1, males, in feed, site: kidney, lesion: tubule adenoma + tubule carcinoma, dosed 103 weeks, study length 105 weeks",e
same,TD50,"mouse, strain B6C3F1, males, in feed, site: kidney, lesion: tubule adenoma, dosed 103 weeks, study length 105 weeks",195000 mg/kg/day
same,carcinogen call,"mouse, strain B6C3F1, males, in feed, site: kidney, lesion: tubule carcinoma, dosed 103 weeks, study length 105 weeks",e
same,TD50,"mouse, strain B6C3F1, males, in feed, site: liver, lesion: hepatocellular adenoma + hepatoblastoma + hepatocellular carcinoma, dosed 103 weeks, study length 105 weeks",1080 mg/kg/day
same,TD50,"mouse, strain B6C3F1, males, in feed, site: liver, lesion: hepatocellular adenoma + hepatocellular carcinoma, dosed 103 weeks, study length 105 weeks",1080 mg/kg/day
same,TD50,"mouse, strain B6C3F1, males, in feed, site: liver, lesion: hepatocellular adenoma, dosed 103 weeks, study length 105 weeks",1210 mg/kg/day
same,TD50,"mouse, strain B6C3F1, males, in feed, site: liver, lesion: hepatocellular carcinoma, dosed 103 weeks, study length 105 weeks",2990 mg/kg/day
same,TD50,"rat, strain Fischer 344, females, in feed, site: any site (literature study), lesion: several types, types named in the paper, dosed 103 weeks, study length 104 weeks",653 mg/kg/day
same,TD50,"rat, strain Fischer 344, females, in feed, site: uterus, lesion: endometrial stromal polyp, dosed 103 weeks, study length 104 weeks",83.5 mg/kg/day (inactive)
same,TD50,"rat, strain Fischer 344, males, in feed, site: any site (literature study), lesion: several types, types named in the paper, dosed 103 weeks, study length 104 weeks",921 mg/kg/day
same,TD50,"rat, strain Fischer 344, males, in feed, site: forestomach, lesion: squamous-cell carcinoma + squamous-cell papilloma, dosed 103 weeks, study length 104 weeks",2350 mg/kg/day
same,carcinogen call,"rat, strain Fischer 344, males, in feed, site: forestomach, lesion: squamous-cell carcinoma, dosed 103 weeks, study length 104 weeks",e
same,TD50,"rat, strain Fischer 344, males, in feed, site: forestomach, lesion: squamous-cell papilloma, dosed 103 weeks, study length 104 weeks",3140 mg/kg/day
same,TD50,"rat, strain Fischer 344, males, in feed, site: liver, lesion: hepatocellular adenoma + hepatoblastoma + hepatocellular carcinoma, dosed 103 weeks, study length 104 weeks",5050 mg/kg/day
same,TD50,"rat, strain Fischer 344, males, in feed, site: palate, lesion: basosquamous tumor, benign + squamous-cell carcinoma + squamous-cell papilloma, dosed 103 weeks, study length 104 weeks",1380 mg/kg/day
same,TD50,"rat, strain Fischer 344, males, in feed, site: palate, lesion: basosquamous tumor, benign, dosed 103 weeks, study length 104 weeks",11500 mg/kg/day
same,TD50,"rat, strain Fischer 344, males, in feed, site: palate, lesion: squamous-cell carcinoma + squamous-cell papilloma, dosed 103 weeks, study length 104 weeks",1570 mg/kg/day
same,TD50,"rat, strain Fischer 344, males, in feed, site: palate, lesion: squamous-cell carcinoma, dosed 103 weeks, study length 104 weeks",9510 mg/kg/day
same,TD50,"rat, strain Fischer 344, males, in feed, site: palate, lesion: squamous-cell papilloma, dosed 103 weeks, study length 104 weeks",1920 mg/kg/day
NC(=S)C(N)=S,TD50,"rat, strain Charles River CD (Sprague-Dawley), females, in feed, site: mammary gland, lesion: one or several types, types not named, dosed 78 weeks, study length 104 weeks",12.6 mg/kg/day
O=S(=O)([O-])[O-].[Cd+2],carcinogen call,"hamster, strain Syrian Golden, females, inhaled, site: lung, lesion: one or several types, types not named, dosed 61 weeks, study length 76 weeks",negative (inactive)
same,carcinogen call,"hamster, strain Syrian Golden, females, inhaled, site: lung, lesion: one or several types, types not named, dosed 64 weeks, study length 77 weeks",negative (inactive)
same,carcinogen call,"hamster, strain Syrian Golden, males, inhaled, site: lung, lesion: one or several types, types not named, dosed 61 weeks, study length 103 weeks",negative (inactive)
same,carcinogen call,"hamster, strain Syrian Golden, males, inhaled, site: lung, lesion: one or several types, types not named, dosed 64 weeks, study length 113 weeks",negative (inactive)
same,TD50,"mouse, strain NMRI, females, inhaled, site: lung, lesion: adenocarcinoma, dosed 42 weeks, study length 96 weeks",0.829 mg/kg/day (inactive)
same,carcinogen call,"mouse, strain NMRI, females, inhaled, site: lung, lesion: adenocarcinoma, dosed 69 weeks, study length 94 weeks",negative (inactive)
same,carcinogen call,"mouse, strain NMRI, females, inhaled, site: lung, lesion: adenoma, dosed 42 weeks, study length 96 weeks",negative (inactive)
same,carcinogen call,"mouse, strain NMRI, females, inhaled, site: lung, lesion: adenoma, dosed 69 weeks, study length 94 weeks",negative (inactive)
same,carcinogen call,"mouse, strain NMRI, females, inhaled, site: lung, lesion: several types, types named in the paper, dosed 42 weeks, study length 96 weeks",negative (inactive)
same,carcinogen call,"mouse, strain NMRI, females, inhaled, site: lung, lesion: several types, types named in the paper, dosed 69 weeks, study length 94 weeks",negative (inactive)
same,TD50,"rat, strain Wistar, females, inhaled, site: lung, lesion: adenocarcinoma, dosed 78 weeks, study length 126 weeks",0.112 mg/kg/day
same,TD50,"rat, strain Wistar, females, inhaled, site: lung, lesion: adenosquamous carcinoma, dosed 78 weeks, study length 126 weeks",0.112 mg/kg/day
same,TD50,"rat, strain Wistar, females, inhaled, site: lung, lesion: alveolar/bronchiolar adenoma, dosed 78 weeks, study length 126 weeks",0.18 mg/kg/day
same,TD50,"rat, strain Wistar, females, inhaled, site: lung, lesion: several types, types named in the paper, dosed 78 weeks, study length 126 weeks",0.0174 mg/kg/day
same,TD50,"rat, strain Wistar, females, inhaled, site: lung, lesion: squamous-cell tumor, dosed 78 weeks, study length 126 weeks",0.381 mg/kg/day
same,TD50,"rat, strain Wistar, males, inhaled, site: lung, lesion: adenocarcinoma, dosed 60 weeks, study length 134 weeks",0.0537 mg/kg/day
same,TD50,"rat, strain Wistar, males, inhaled, site: lung, lesion: adenosquamous carcinoma, dosed 60 weeks, study length 134 weeks",0.219 mg/kg/day
same,TD50,"rat, strain Wistar, males, inhaled, site: lung, lesion: alveolar/bronchiolar adenoma, dosed 60 weeks, study length 134 weeks",0.219 mg/kg/day
same,TD50,"rat, strain Wistar, males, inhaled, site: lung, lesion: several types, types named in the paper, dosed 60 weeks, study length 134 weeks",0.0289 mg/kg/day
CC(C)Oc1ccccc1OC(=O)N(C)N=O,TD50,"rat, strain Sprague-Dawley, males, by gavage, site: forestomach, lesion: carcinoma, dosed 31 weeks, study length 90 weeks",0.434 mg/kg/day
same,TD50,"rat, strain Sprague-Dawley, males, by gavage, site: forestomach, lesion: one or several types, types not named, dosed 31 weeks, study length 90 weeks",0.364 mg/kg/day
CN(C)P(=O)(N(C)C)N(C)C,TD50,"rat, strain Charles River CD (Sprague-Dawley), both sexes, inhaled, site: nasal cavity, adenoid, lesion: squamous-cell carcinoma, dosed 53 weeks, study length 104 weeks",0.519 mg/kg/day
same,TD50,"rat, strain Charles River CD (Sprague-Dawley), both sexes, inhaled, site: nasal cavity, adenoid, lesion: squamous-cell carcinoma, dosed 72 weeks, study length 104 weeks",0.608 mg/kg/day
same,TD50,"rat, strain Charles River CD (Sprague-Dawley), both sexes, inhaled, site: nasal cavity, lesion: epidermoid carcinoma, dosed 53 weeks, study length 104 weeks",0.0581 mg/kg/day
same,TD50,"rat, strain Charles River CD (Sprague-Dawley), both sexes, inhaled, site: nasal cavity, lesion: epidermoid carcinoma, dosed 72 weeks, study length 104 weeks",0.0456 mg/kg/day
same,TD50,"rat, strain Charles River CD (Sprague-Dawley), both sexes, inhaled, site: nasal cavity, lesion: malignant tumor, dosed 53 weeks, study length 104 weeks",0.0416 mg/kg/day
same,TD50,"rat, strain Charles River CD (Sprague-Dawley), both sexes, inhaled, site: nasal cavity, lesion: malignant tumor, dosed 72 weeks, study length 104 weeks",0.0387 mg/kg/day
same,TD50,"rat, strain Charles River CD (Sprague-Dawley), both sexes, inhaled, site: nasal cavity, lesion: several types, types named in the paper, dosed 53 weeks, study length 104 weeks",0.0345 mg/kg/day
same,TD50,"rat, strain Charles River CD (Sprague-Dawley), both sexes, inhaled, site: nasal cavity, lesion: several types, types named in the paper, dosed 72 weeks, study length 104 weeks",0.0344 mg/kg/day
ClC(Br)Br,TD50,"mouse, strain B6C3F1, females, by gavage, site: liver, lesion: hepatocellular adenoma + hepatocellular carcinoma + neoplastic nodule, dosed 105 weeks, study length 106 weeks",139 mg/kg/day
same,TD50,"mouse, strain B6C3F1, females, by gavage, site: liver, lesion: hepatocellular adenoma + hepatocellular carcinoma, dosed 105 weeks, study length 106 weeks",139 mg/kg/day
same,TD50,"mouse, strain B6C3F1, females, by gavage, site: liver, lesion: hepatocellular adenoma, dosed 105 weeks, study length 106 weeks",211 mg/kg/day
same,TD50,"mouse, strain B6C3F1, males, by gavage, site: any site (literature study), lesion: several types, types named in the paper, dosed 105 weeks, study length 106 weeks",11.3 mg/kg/day
same,TD50,"mouse, strain B6C3F1, males, by gavage, site: liver, lesion: hepatocellular adenoma + hepatocellular carcinoma + neoplastic nodule, dosed 105 weeks, study length 106 weeks",20.7 mg/kg/day
same,TD50,"mouse, strain B6C3F1, males, by gavage, site: liver, lesion: hepatocellular adenoma + hepatocellular carcinoma, dosed 105 weeks, study length 106 weeks",20.7 mg/kg/day
same,TD50,"mouse, strain B6C3F1, males, by gavage, site: liver, lesion: hepatocellular carcinoma, dosed 105 weeks, study length 106 weeks",33.5 mg/kg/day
same,TD50,"mouse, strain B6C3F1, males, by gavage, site: lung, lesion: alveolar/bronchiolar adenoma + alveolar/bronchiolar carcinoma, dosed 105 weeks, study length 106 weeks",115 mg/kg/day
same,carcinogen call,"rat, strain Fischer 344, females, by gavage, site: any site (literature study), lesion: several types, types named in the paper, dosed 104 weeks, study length 105 weeks",negative (inactive)
same,TD50,"rat, strain Fischer 344, females, by gavage, site: liver, lesion: hepatocellular adenoma + hepatocellular carcinoma + neoplastic nodule, dosed 104 weeks, study length 105 weeks",591 mg/kg/day
same,carcinogen call,"rat, strain Fischer 344, males, by gavage, site: any site (literature study), lesion: several types, types named in the paper, dosed 104 weeks, study length 105 weeks",negative (inactive)
same,TD50,"rat, strain Fischer 344, males, by gavage, site: liver, lesion: hepatocellular adenoma + hepatocellular carcinoma + neoplastic nodule, dosed 104 weeks, study length 105 weeks",150 mg/kg/day
CC(=O)Nc1ccc(-c2ccc(F)cc2)cc1,TD50,"rat, strain Fischer 344, males, in feed, site: kidney, lesion: adenocarcinoma, dosed 52 weeks, study length 52 weeks",1.01 mg/kg/day
NC(=O)NNc1ccccc1,TD50,"mouse, strain Swiss albino, females, in drinking water, site: liver, lesion: angioma, dosed 79 weeks, study length 79 weeks",2670 mg/kg/day (inactive)
same,TD50,"mouse, strain Swiss albino, females, in drinking water, site: liver, lesion: angiosarcoma, dosed 79 weeks, study length 79 weeks",1980 mg/kg/day (inactive)
same,TD50,"mouse, strain Swiss albino, females, in drinking water, site: lung, lesion: adenocarcinoma, dosed 79 weeks, study length 79 weeks",1250 mg/kg/day
same,TD50,"mouse, strain Swiss albino, females, in drinking water, site: lung, lesion: adenoma, dosed 79 weeks, study length 79 weeks",150 mg/kg/day
same,TD50,"mouse, strain Swiss albino, females, in drinking water, site: lung, lesion: several types, types named in the paper, dosed 79 weeks, study length 79 weeks",155 mg/kg/day
same,TD50,"mouse, strain Swiss albino, males, in drinking water, site: liver, lesion: angiosarcoma, dosed 79 weeks, study length 79 weeks",2000 mg/kg/day (inactive)
same,TD50,"mouse, strain Swiss albino, males, in drinking water, site: liver, lesion: several types, types named in the paper, dosed 79 weeks, study length 79 weeks",1790 mg/kg/day
same,TD50,"mouse, strain Swiss albino, males, in drinking water, site: lung, lesion: adenoma, dosed 79 weeks, study length 79 weeks",158 mg/kg/day
same,TD50,"mouse, strain Swiss albino, males, in drinking water, site: lung, lesion: several types, types named in the paper, dosed 79 weeks, study length 79 weeks",176 mg/kg/day
